{
  "source": "PubChem BioAssay (NCI)",
  "assay_in_all_cases": "NCI tumour cell line growth inhibition, 48 h",
  "key": {"NCI-H522 lung": {"test_system": "NCI-H522 lung"}, "NCI/ADR-RES ovarian": {"test_system": "NCI/ADR-RES ovarian"}, "EKVX NSCLC": {"test_system": "EKVX NSCLC"}, "OVCAR-4 ovarian": {"test_system": "OVCAR-4 ovarian"}, "SNB-75 CNS": {"test_system": "SNB-75 CNS"}, "A549 NSCLC": {"test_system": "A549 NSCLC"}, "HCT-116 colon": {"test_system": "HCT-116 colon"}, "SN12C renal": {"test_system": "SN12C renal"}, "LOX IMVI melanoma": {"test_system": "LOX IMVI melanoma"}, "NCI-H460 lung": {"test_system": "NCI-H460 lung"}, "A498 renal": {"test_system": "A498 renal"}, "HCT-15 colon": {"test_system": "HCT-15 colon"}, "SNB-19 CNS": {"test_system": "SNB-19 CNS"}, "PC-3 prostate": {"test_system": "PC-3 prostate"}, "MDA-MB-231 breast": {"test_system": "MDA-MB-231 breast"}, "UO-31 renal": {"test_system": "UO-31 renal"}, "786-0 renal": {"test_system": "786-0 renal"}, "IGROV1 ovarian": {"test_system": "IGROV1 ovarian"}, "HOP-92 NSCLC": {"test_system": "HOP-92 NSCLC"}, "SF-295 CNS": {"test_system": "SF-295 CNS"}, "T-47D breast": {"test_system": "T-47D breast"}, "HCC-2998 colon": {"test_system": "HCC-2998 colon"}, "HS 578T breast": {"test_system": "HS 578T breast"}, "MALME-3M melanoma": {"test_system": "MALME-3M melanoma"}, "SW-620 colon": {"test_system": "SW-620 colon"}, "M14 melanoma": {"test_system": "M14 melanoma"}, "HL-60(TB) leukemia": {"test_system": "HL-60(TB) leukemia"}, "SK-MEL-5 melanoma": {"test_system": "SK-MEL-5 melanoma"}},
  "note": "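Tested at 5 concentrations; 48 h exposure; 96-well plates; endpoints linearly interpolated, else capped at highest concentration. Abbreviation: GI50, concentration required for 50% inhibition of growth. TGI marks complete inhibition of growth.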",
  "data": [
    {"smiles": "Cc1ccccc1N1CCN(C2=C(Cl)C(=O)c3ncccc3C2=O)CC1", "values": [
      {"measurement": "TGI", "setting": "NCI-H522 lung", "value": 3.31, "unit": "µM"},
      {"measurement": "GI50", "setting": "NCI/ADR-RES ovarian", "value": 2.51, "unit": "µM"},
      {"measurement": "TGI", "setting": "NCI/ADR-RES ovarian", "value": 7.18, "unit": "µM"},
      {"measurement": "GI50", "setting": "EKVX NSCLC", "value": 1.68, "unit": "µM"},
      {"measurement": "TGI", "setting": "EKVX NSCLC", "value": 3.1, "unit": "µM"},
      {"measurement": "GI50", "setting": "OVCAR-4 ovarian", "value": 1.75, "unit": "µM"},
      {"measurement": "TGI", "setting": "OVCAR-4 ovarian", "value": 3.23, "unit": "µM"},
      {"measurement": "GI50", "setting": "SNB-75 CNS", "value": 17.4, "unit": "µM"},
      {"measurement": "TGI", "setting": "SNB-75 CNS", "value": "> 100", "unit": "µM"},
      {"measurement": "GI50", "setting": "A549 NSCLC", "value": 23.5, "unit": "µM"},
      {"measurement": "TGI", "setting": "A549 NSCLC", "value": "> 100", "unit": "µM"},
      {"measurement": "GI50", "setting": "HCT-116 colon", "value": 1.56, "unit": "µM"},
      {"measurement": "TGI", "setting": "HCT-116 colon", "value": 2.89, "unit": "µM"},
      {"measurement": "GI50", "setting": "SN12C renal", "value": 3.56, "unit": "µM"},
      {"measurement": "TGI", "setting": "SN12C renal", "value": 78.9, "unit": "µM"},
      {"measurement": "GI50", "setting": "LOX IMVI melanoma", "value": 1.65, "unit": "µM"},
      {"measurement": "TGI", "setting": "LOX IMVI melanoma", "value": 3.21, "unit": "µM"},
      {"measurement": "GI50", "setting": "NCI-H460 lung", "value": 6.68, "unit": "µM"},
      {"measurement": "TGI", "setting": "NCI-H460 lung", "value": 46.5, "unit": "µM"},
      {"measurement": "GI50", "setting": "A498 renal", "value": "> 100", "unit": "µM"},
      {"measurement": "TGI", "setting": "A498 renal", "value": "> 100", "unit": "µM"},
      {"measurement": "GI50", "setting": "HCT-15 colon", "value": 1.69, "unit": "µM"},
      {"measurement": "TGI", "setting": "HCT-15 colon", "value": 4.52, "unit": "µM"},
      {"measurement": "GI50", "setting": "SNB-19 CNS", "value": 30.3, "unit": "µM"},
      {"measurement": "TGI", "setting": "SNB-19 CNS", "value": "> 100", "unit": "µM"},
      {"measurement": "GI50", "setting": "PC-3 prostate", "value": 1.63, "unit": "µM"},
      {"measurement": "TGI", "setting": "PC-3 prostate", "value": 3.7, "unit": "µM"},
      {"measurement": "GI50", "setting": "MDA-MB-231 breast", "value": 1.71, "unit": "µM"},
      {"measurement": "TGI", "setting": "MDA-MB-231 breast", "value": 3.27, "unit": "µM"},
      {"measurement": "GI50", "setting": "UO-31 renal", "value": 1.49, "unit": "µM"},
      {"measurement": "TGI", "setting": "UO-31 renal", "value": 2.86, "unit": "µM"},
      {"measurement": "GI50", "setting": "786-0 renal", "value": 1.71, "unit": "µM"},
      {"measurement": "TGI", "setting": "786-0 renal", "value": 3.09, "unit": "µM"},
      {"measurement": "GI50", "setting": "IGROV1 ovarian", "value": 1.97, "unit": "µM"},
      {"measurement": "TGI", "setting": "IGROV1 ovarian", "value": 4.09, "unit": "µM"},
      {"measurement": "GI50", "setting": "HOP-92 NSCLC", "value": 1.36, "unit": "µM"},
      {"measurement": "TGI", "setting": "HOP-92 NSCLC", "value": 2.7, "unit": "µM"},
      {"measurement": "GI50", "setting": "SF-295 CNS", "value": 14.7, "unit": "µM"},
      {"measurement": "TGI", "setting": "SF-295 CNS", "value": "> 100", "unit": "µM"},
      {"measurement": "GI50", "setting": "T-47D breast", "value": 1.9, "unit": "µM"},
      {"measurement": "TGI", "setting": "T-47D breast", "value": 4.35, "unit": "µM"},
      {"measurement": "GI50", "setting": "HCC-2998 colon", "value": 3.33, "unit": "µM"},
      {"measurement": "TGI", "setting": "HCC-2998 colon", "value": 13.8, "unit": "µM"},
      {"measurement": "GI50", "setting": "HS 578T breast", "value": 4.94, "unit": "µM"},
      {"measurement": "TGI", "setting": "HS 578T breast", "value": 85.3, "unit": "µM"},
      {"measurement": "GI50", "setting": "MALME-3M melanoma", "value": 2.03, "unit": "µM"},
      {"measurement": "TGI", "setting": "MALME-3M melanoma", "value": 4.64, "unit": "µM"},
      {"measurement": "GI50", "setting": "SW-620 colon", "value": 1.48, "unit": "µM"},
      {"measurement": "TGI", "setting": "SW-620 colon", "value": 3.45, "unit": "µM"},
      {"measurement": "GI50", "setting": "M14 melanoma", "value": 2.2, "unit": "µM"},
      {"measurement": "TGI", "setting": "M14 melanoma", "value": 6.45, "unit": "µM"},
      {"measurement": "GI50", "setting": "HL-60(TB) leukemia", "value": 1.61, "unit": "µM"},
      {"measurement": "TGI", "setting": "HL-60(TB) leukemia", "value": 4.05, "unit": "µM"},
      {"measurement": "GI50", "setting": "SK-MEL-5 melanoma", "value": 4.98, "unit": "µM"},
      {"measurement": "TGI", "setting": "SK-MEL-5 melanoma", "value": 17.7, "unit": "µM"}
    ]}
  ]
}
